Laboratory results taken from PubChem BioAssay AID2765 (Broad Institute, 2010).
The source made the active and inactive calls.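 Rule for the calls: active = half-maximal concentration for the rise in caspase light signal at or below ten times the top tested dose; inconclusive = flat fit between 30% and 70% activity, or unreliable curve fit; inactive = the rest.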

System: MEF A1-2A-BIM cells, caspase 3/7 luminescence, 3 h
Experiment: caspase activation in A1-2A-BIM MEF cells, dose response, A1 inhibitor project, cell-based, luminescence, retest (AID 2765)

| Structure (SMILES) | EC50 |
| --- | --- |
| Cc1ccc(OC(=O)C2CCN(C(=O)c3ccccc3C)CC2)c(Br)c1 | > 35 µM (inactive) |
| O=C(NCCN1CCN(c2ccccc2)CC1)c1ccc2c(c1)[nH]c(=S)n1c3ccccc3nc21 | > 35 µM (inactive) |
| CCCNC(=O)C(Cc1ccccc1)NC(=O)Cc1ccccc1 (centres undefined) | > 35 µM (inactive) |
| Cc1csc(NC(=O)c2cccc(S(=O)(=O)N3CCN(C)CC3)c2)n1 | > 35 µM (inactive) |
| Cc1cc(C)n(-c2nc(Nc3ccccc3C)nc(-n3nc(C)cc3C)n2)n1 | > 35 µM (inactive) |
| COc1ccc(S(=O)(=O)Nc2c(NC3CCCCC3)c3ccccc3oc2=O)cc1OC | > 35 µM (inactive) |
| NS(=O)(=O)c1ccc(NC(=O)c2ccc3c(c2)CCCC3)cc1 | > 35 µM (inactive) |
| C=CCNC(=O)CSc1nc2sc3c(c2c(=O)n1CCC)CCC3 | > 35 µM (inactive) |
| CN(C)C(=O)c1ccc(OCC(F)(F)F)nc1 | > 35 µM (inactive) |
| COc1ccc2[nH]c(=O)c(-c3nnn(-c4ccccc4)n3)cc2c1 | > 35 µM (inactive) |
| COCCCN(C(=O)Nc1ccccc1)C(C)c1ccncc1 (centres undefined) | > 35 µM (inactive) |
| COc1ccc(NC(=O)/C(Cl)=C(/Cl)S(=O)Cc2ccc(C)cc2)cn1 (centres undefined) | > 35 µM (inactive) |
| C=CCn1c(SCc2ccc(F)cc2)nnc1-c1sc2nc(C)cc(C)c2c1N | > 35 µM (inactive) |
| COc1ccc(N2CCN(C(=O)C3CCN(C(=O)c4ccc([N+](=O)[O-])cc4)CC3)CC2)cc1 | > 35 µM (inactive) |
| O=C(CCCCl)NC(=S)Nc1ccc(CN2CCOCC2)cc1 | > 35 µM (inactive) |
| COc1ccc(-n2ncc3c2CC(C)(C)CC3NC(=O)Cc2nonc2C)cc1 (centres undefined) | > 35 µM (inactive) |
| Cc1ccc(S(=O)(=O)n2cc(-c3ccccc3)c3ccccc32)cc1 | > 35 µM (inactive) |
| CC(C)C(OC(=O)c1cc2c(s1)CCCCC2)C(=O)NC(N)=O (centres undefined) | > 35 µM (inactive) |
| O=C(Nc1ccc2oc(-c3cccc(F)c3)nc2c1)c1ccccc1F | > 35 µM (inactive) |
| CC1=C(C(N)=O)C(c2ccc3c(c2)OCO3)n2nc(-c3cccc(C)c3)nc2N1 (centres undefined) | > 35 µM (inactive) |
| CN(CC(=O)Nc1ccc(F)cc1)C(=O)c1ccccc1OCc1ccc(F)cc1 | > 35 µM (inactive) |
| C[C@@H]1CN([C@@H](C)CO)C(=O)c2cc(NS(=O)(=O)c3ccc(Cl)cc3)ccc2O[C@H]1CN(C)Cc1ccncc1 | > 35 µM (inactive) |
| COc1cccc(-c2cc(C(F)(F)F)c(C#N)c(=O)[nH]2)c1 | > 35 µM (inactive) |
| O=[N+]([O-])c1ccc(CP(=O)(c2ccccc2)c2ccccc2)cc1 | > 35 µM (inactive) |

| Structure (SMILES) | EC50 |
| --- | --- |
| O=C(NC1CCCC1)c1cccc2c1C(=O)c1ccc(/C=C/c3ccccc3)cc1S2(=O)=O | 10.6 µM |
| Oc1ccc(C[C@H]2CNCCN2CCCCC2CCCCC2)cc1 | > 35 µM (inactive) |
| O=C(c1ccco1)N1CCN(C(=O)C2CCN(S(=O)(=O)c3cccs3)CC2)CC1 | > 35 µM (inactive) |
| Nc1c(C(=O)Nc2ccc(S(=O)(=O)N3CCCC3)cc2)sc2nc3ccc(OC(F)(F)F)cc3cc12 | 8.62 µM |
| CSc1ccccc1NC(=O)c1ccc(N2CC3CC(C2)c2cccc(=O)n2C3)c(NC(=O)c2cccnc2)c1 (centres undefined) | > 35 µM (inactive) |
| N#C/C(=C/c1ccc(N2CCOCC2)o1)c1ccc(Br)cc1 | > 35 µM (inactive) |
| Nc1nonc1-n1nnc(C(=O)N/N=C/c2ccc(Br)cc2)c1CN1CCOCC1 | > 35 µM (inactive) |
| O=C(C1=NN[C@@H]2C(=O)N(Cc3ccccc3)C(=O)[C@H]12)c1ccc(F)cc1 | > 35 µM (inactive) |
| O=C(COC(=O)c1ccccc1Br)NC1CCCCCCC1 | > 35 µM (inactive) |
| Cc1ccccc1N=C1NC(=O)C(CO)(CO)S1 | > 35 µM (inactive) |
| CC1CCc2c(sc3nc(C(C)(C)C)nc(N4CCN(C(=O)CCl)CC4)c23)C1 (centres undefined) | 15.4 µM |
| Brc1ccc(CN2CCN(Cc3c[nH]c4ccccc34)CC2)cc1 | > 35 µM (inactive) |
| Cc1ccc(N2CCN(C(=S)Nc3ccccc3C)CC2)cc1 | > 35 µM (inactive) |
| COc1cc(CN2CCc3ccccc3C2)ccc1O | > 35 µM (inactive) |
| COc1cc(C(=O)Nc2cc3c(cc2N2CCCCC2)n(C)c(=O)n3C)cc(OC)c1OC | > 35 µM (inactive) |
| Cc1cccc(NC(=O)/C(C#N)=C/c2cn(CC(=O)NCc3ccco3)c3ccccc23)c1 | 21.7 µM |
| Cc1ccc(NC(=O)COC(=O)CCc2c(C)nc3ncnn3c2C)cc1C | > 35 µM (inactive) |
| COC(=O)C(CO)Nc1ncnc2onc(-c3ccc(F)cc3)c12 (centres undefined) | > 35 µM (inactive) |
| CC(C)(C)C1C/C(=C/c2ccccn2)C(=O)/C(=C/c2ccccn2)C1 (centres undefined) | 8.46 µM |
| COc1ccc(C(=O)COC(=O)Cn2[nH]c(=O)c3ccccc3c2=O)c(OC)c1 | > 35 µM (inactive) |
| O=C(c1cc(C2CC2)nn1-c1ccccc1)N1CCN(S(=O)(=O)c2cccc(F)c2)CC1 | > 35 µM (inactive) |
| CCOc1ccc(NC(=S)NC(=O)/C=C/c2ccc(C)cc2)c([N+](=O)[O-])c1 | 31.5 µM |
| CC(=O)Nc1ccc(S(=O)(=O)N2CCCC3CCCCC32)cc1 (centres undefined) | > 35 µM (inactive) |
| O=C(CCC(=O)N1CCN(c2ccccc2F)CC1)N1CCN(c2ccccc2)CC1 | > 35 µM (inactive) |

| Structure (SMILES) | EC50 |
| --- | --- |
| Cc1ccc2nc(N(CCCN(C)C)C(=O)c3ccc(S(=O)(=O)N4CCc5ccccc5C4)cc3)sc2c1 | > 35 µM (inactive) |
| CCCOC(=O)Nc1ccc([As](=O)(O)O)cc1NC(=O)OCCC | > 35 µM (inactive) |
| CC(C)(C)OC(=O)n1cc(CCO)c2ccccc21 | > 35 µM (inactive) |
| CCOC(=O)Nc1nc(-c2ccccc2)c(C(=O)c2ccccc2)s1 | > 35 µM (inactive) |
| CCCCc1ccc(-c2csc(/C(C#N)=C\c3ccc(C)o3)n2)cc1 | > 35 µM (inactive) |
| COc1cc(/C=C2/C(=N)N3C=CSC3=NC2=O)ccc1OCCCOc1cc(C)ccc1C | 7.28 µM |
| CCOc1ccc(OCC(=O)N(CCC2=CCCCC2)c2c(N)n(Cc3ccccc3)c(=O)[nH]c2=O)cc1 | 19.1 µM |
| OC(COc1ccc2ccccc2c1Br)Cn1ccnc1 (centres undefined) | > 35 µM (inactive) |
| Cc1ccc(NC(=O)CSc2nnc(C)n2-c2ccccc2)cc1 | > 35 µM (inactive) |
| COc1oc(-c2ccccc2)nc1C(F)(F)F | > 35 µM (inactive) |
| COc1ccc(S(=O)(=O)N2CCC(C(=O)N[C@@H](C)C(=O)NCc3ccncc3)CC2)cc1 | > 35 µM (inactive) |
| CCS(=O)(=O)c1ncc(Cl)c(C(=O)Nc2ccc(S(=O)(=O)N3CCCC(C)C3)cc2)n1 (centres undefined) | > 35 µM (inactive) |
| CCCc1nc2cc3c(cc2[nH]1)n(C)c(=O)n3C | > 35 µM (inactive) |
| O=C(CCCCCn1c(=S)[nH]c2ccsc2c1=O)NC1CCCCC1 | > 35 µM (inactive) |
| CC(C)N(C(=O)CSc1ccc(S(=O)(=O)N2CCCCC2)cn1)C(C)C | > 35 µM (inactive) |
| CC(C)c1nnc(NC(=O)COC(=O)/C=C/c2ccc([N+](=O)[O-])cc2)s1 | > 35 µM (inactive) |
| COc1ccc(C(=O)/C=C/C(=O)N(CC(=O)NC2CCCCC2)Cc2cccs2)c(O)c1 | > 35 µM (inactive) |
| COc1cc(/C=C(/C#N)c2nc3ccccc3[nH]2)ccc1OCC(=O)Nc1ccccc1C(C)C | 14.6 µM |
| COc1ccc(S(=O)(=O)Nc2c(C)n(C)n(-c3ccccc3)c2=O)cc1 | > 35 µM (inactive) |
| CN1C(=O)[C@H]2[C@@H](C3CC3)N3C(=O)CN(Cc4ccc(-c5ccccc5)cc4)C(=O)[C@@]3(C)[C@H]2C1=O | > 35 µM (inactive) |
| COC(=O)[C@@]1(C)CC[C@]2(C)CC[C@@]3(C)C(=CC(=O)C4[C@@]5(C)CC[C@H](O)C(C)(C)[C@@H]5CC[C@]43C)[C@H]2C1 (some centres undefined) | > 35 µM (inactive) |
| O=C(O)c1cccc(CSc2nc(-c3ccc(Cl)cc3)cc(C(F)(F)F)n2)c1 | > 35 µM (inactive) |
| COc1cc(CN2CCNC(=O)C2CC(=O)N(C)CCCN2CCOCC2)cc(OC)c1 (centres undefined) | > 35 µM (inactive) |
| Cc1c(O)c(=O)ccn1Cc1ccccc1 | > 35 µM (inactive) |

| Structure (SMILES) | EC50 |
| --- | --- |
| CCN(C(=O)c1ccc2c(=O)n3c(nc2c1)CCCCC3)c1ccccc1C | > 35 µM (inactive) |
| O=C(Nc1ccc(Br)cn1)c1cccc2c1-c1ccccc1C2=O | > 35 µM (inactive) |
| O=C(O)c1ccc2c(c1)C(=O)N(c1ccc(Cl)cn1)C2=O | > 35 µM (inactive) |
| C/C(=N\NC(=O)CCC(=O)NCc1ccccc1)c1ccco1 | > 35 µM (inactive) |
| CCOC(=O)CCC(=O)Nc1ccc(S(=O)(=O)N2CCC(C)CC2)cc1 | > 35 µM (inactive) |
| O=C(c1cccc(F)c1F)N1CCCC1 | > 35 µM (inactive) |
| Cc1noc(NS(=O)(=O)c2ccc(NC(=O)c3ccccc3NS(=O)(=O)c3ccc(F)cc3)cc2)c1C | > 35 µM (inactive) |
| O=C(N=Nc1c(O)[nH]c2ccc([N+](=O)[O-])cc12)c1cc(-c2ccccc2Cl)nc2ccccc12 | > 35 µM (inactive) |
| COC(=O)N(NC(=O)C(O)(c1ccccc1)c1ccccc1)c1ccc(C)cc1 | > 35 µM (inactive) |
| CN(C)c1ccc(S(=O)(=O)N(C)C)cc1[N+](=O)[O-] | > 35 µM (inactive) |
| CCS(=O)(=O)c1ncc(Cl)c(C(=O)Nc2ccc(S(=O)(=O)N(C)c3ccccc3)cc2)n1 | > 35 µM (inactive) |
| COc1ccc(N2C(=O)CCC(C(=O)O)C2c2ccc(OC)c(OC)c2)cc1 (centres undefined) | > 35 µM (inactive) |
| CCOc1nc(NCCO)nc(NCCC2=CCCCC2)n1 | > 35 µM (inactive) |
| CN1CCN(c2nccc3c2ncn3C)CC1 | > 35 µM (inactive) |
| O=C(O)c1ccccc1SCCS(=O)(=O)c1ccc(Cl)cc1Cl | > 35 µM (inactive) |
| Cc1ccc(CCC(=O)Nc2ccc(Br)cc2)o1 | > 35 µM (inactive) |
| Cc1cc(C(=O)Nc2cccc3c2O[C@@H](CN(C)S(=O)(=O)c2ccccc2)[C@H](C)CN([C@@H](C)CO)C3=O)n(C)n1 | > 35 µM (inactive) |
| CCOCCOC(=O)c1[nH]c2c(c1C)C(=O)CC(c1cccs1)C2 (centres undefined) | > 35 µM (inactive) |
| CCC(=O)c1ccc(N2CCN(C(=O)Cc3ccccc3)CC2)c(F)c1 | > 35 µM (inactive) |
| CCOc1cc2[nH]c(=S)n(CCCOC)c(=O)c2cc1OCC | > 35 µM (inactive) |
| O=C(/C=C/c1ccc(Cl)c(Cl)c1)NC1=NCCS1 | > 35 µM (inactive) |
| O=C(COc1ccc(Br)cc1F)NCC1(N2CCCCC2)CCCCC1 | > 35 µM (inactive) |
